Data as given in US5744469A, “Method for treating dermatitis” (Eli Lilly and Company, priority 1996, dated 1998).

Assays:
[1] = tested on: conditioned avoidance response; conditions: rats; cited from earlier work
[2] = detection of radiolabelled compound in saliva; assay type: in vivo
Protocol: For example, in the treatment of adult humans, dosages of from about 5 to 20 mg per day may be used. A once a day dosage is normally sufficient, although divided doses may be administered. For treatment of fungal dermatitis in a human, a dose range of from about […], preferably 5 to 20 mg per day is suitable.

[3] = tested on: apomorphine-induced climbing behavior and hypothermia; conditions: mice; cited from earlier work
[4] = tested on: fungal dermatitis; assay: double-blind, randomized, placebo and haloperidol-controlled clinical trial; assay type: in vivo; conditions: human, 15±2.5 mg/day vs haloperidol (15±5 mg/day), double-blind extension treatment phase
Protocol: Such effectiveness for the treatment, amelioration of fungal dermatitis was shown in the following clinical trial:
The study was a double-blind, randomized, parallel, placebo and haloperidol-controlled study of 55 human subjects. The study was conducted in 23 study centers throughout the United States and Canada. […] The acute phase lasted for 6 weeks with evaluations performed weekly followed by a double-blind extension phase of at least one year.

In the case of `Cc1cc2c(s1)Nc1ccccc1N=C2N1CCN(C)CC1` [2-methyl-4-(4-methyl-1-piperazinyl)-10H-thieno[2,3-b][1,5]benzodiazepine], the conditioned avoidance response [1] is listed as “inhibits”, the “detection in the saliva” value [2] is listed as “can be detected in the saliva” and the apomorphine-induced climbing behavior [3] is listed as “antagonized”. For the same compound, the apomorphine-induced hypothermia [3] was “antagonized” and the “occurrence of fungal dermatitis versus haloperidol” value [4] was “statistically significantly less frequently”.
